In US3966715A, “Herbicidal agents” (Bayer Aktiengesellschaft, priority 1966, dated 1976):

Columns and labels:
Assay type in all cases: in vivo
[1] = tested on: Wheat; assay: Pre-emergence test, wheat; conditions: three weeks
Method: (§1) Solvent: 5 parts by weight acetone
(§2) 1 part by weight benzyloxypolyglycol ether
(§3) To produce a suitable preparation of the particular active compound, 1 part by weight of such active compound is mixed with the stated amount of solvent, the stated amount of emulsifier is then added and the resulting concentrate is thereafter diluted with water to the desired final concentration.
(§4) Seeds of the test plants are sown in normal soil and, after 24 hours, watered with the preparation of the given active compound. It is expedient to keep constant the amount of water per unit area. The concentration of the particular active compound in the preparation is of no importance, only the amount of active compound applied per unit area being decisive. After three weeks, the degree of damage to the test plants is determined and characterized by the values 0-5, which have the following meaning:
(§5) The procedure of Example 1 is repeated, and the particular active compounds tested, the amounts applied, and the results obtained can be seen from the following Table 1D: […]

[2] = tested on: Cotton; assay: Pre-emergence test, cotton; conditions: three weeks
Method: as §1, §2, §3, §4, §5

[3] = tested on: Echinochloa; assay: Pre-emergence test, Echinochloa; conditions: three weeks
Method: as §1, §2, §3, §4, §5

[4] = tested on: Wheat; assay: Post-emergence test, wheat; conditions: three weeks
Method: as §1, §2, §3
(§6) Test plants which have a height of about 5--15 cm. are sprayed with the preparation of the given active compound until just dew moist. After three weeks, the degree of damage to the plants is determined and characterized by the values 0-5, which have the following meaning:
(§7) The procedure of Example 2 is repeated, and the particular active compounds tested, and amounts applied, and the results obtained can be seen from the following Table 2E: […]

[5] = tested on: test plants; assay: Post-emergence test, overall; conditions: Example 2
Method: as §1, §2, §3, §6, §7

[6] = tested on: Chenopodium; assay: Post-emergence test, Chenopodium; conditions: three weeks
Method: as §1, §2, §3, §6, §7

[7] = tested on: Cotton; assay: Post-emergence test, cotton; conditions: three weeks
Method: as §1, §2, §3, §6, §7

[8] = tested on: Echinochloa; assay: Post-emergence test, Echinochloa; conditions: three weeks
Method: as §1, §2, §3, §6, §7

[9] = tested on: Stellaria; assay: Post-emergence test, Stellaria; conditions: three weeks
Method: as §1, §2, §3, §6, §7

[10] = tested on: Oats; assay: Pre-emergence test, oats; conditions: three weeks
Method: as §1, §2, §3, §4, §5

[11] = tested on: Chenopodium; assay: Pre-emergence test, Chenopodium; conditions: three weeks
Method: as §1, §2, §3, §4, §5

[12] = tested on: Oats; assay: Post-emergence test, oats; conditions: three weeks
Method: as §1, §2, §3, §6, §7

[13] = tested on: Sinapis; assay: Pre-emergence test, Sinapis; conditions: three weeks
Method: as §1, §2, §3, §4, §5

SMILES: CN(C)c1nnc(-c2ccccc2)c(=O)n1N [Compound 16, 3-dimethylamino-4-amino-6-phenyl-1,2,4-triazine-5-one]
- degree of damage, Wheat ([1]; 1.25 kg/hectare): 4-5
- degree of damage, Wheat ([1]; 2.5 kg/hectare): 4-5
- degree of damage, Wheat ([1]; 5 kg/hectare): 4-5
- degree of damage, Cotton ([2]; 2.5 kg/hectare): 4-5
- degree of damage, Echinochloa ([3]; 1.25 kg/hectare): 4-5
- degree of damage, Wheat ([4]; 1.2 Kg/hectare): 4-5

SMILES: CSc1nnc(C(C)C)c(=O)n1N [Compound 21, 3-methylthio-4-amino-6-isopropyl-1,2,4-triazine-5-one]
- degree of damage, Wheat ([4]; 0.01 % active compound): 4-5
- kind of herbicidal action [5]: pronouncedly total-herbicidal action

SMILES: C=CCNc1nnc(-c2ccccc2)c(=O)n1N [Compound 26, 3-allylamino-4-amino-6-phenyl-1,2,4-triazine-5-one]
- degree of damage, Echinochloa ([3]; 5 kg/hectare): 4-5
- degree of damage, Chenopodium ([6]; 0.6 Kg/hectare): 4-5
- kind of herbicidal action [5]: pronouncedly selective-herbicidal action in wheat and carrots

SMILES: CSc1nnc(-c2ccccc2)c(=O)n1N=Cc1ccccn1 [Compound 28, 3-methylthio-4-(pyrid-2'-yl-methylidene-amino)-6-phenyl-1,2,4-triazine-5-one]
- kind of herbicidal action [5]: pronouncedly selective-herbicidal action in snap beans and wheat

SMILES: CCCCNc1nnc(-c2ccccc2)c(=O)n1N [Compound 100a, 3-n-butylamino-4-amino-6-phenyl-1,2,4-triazine-5-one]
- degree of damage, Wheat ([4]; 10 Kg/hectare): 2-3
- degree of damage, Cotton ([7]; 10 Kg/hectare): 2-3
- degree of damage, Echinochloa ([8]; 10 Kg/hectare): 2-3

SMILES: Nn1c(NCc2ccccc2)nnc(-c2ccccc2)c1=O [Compound 102a, 3-benzylamino-4-amino-6-phenyl-1,2,4-triazine-5-one]
- degree of damage, Cotton ([7]; 10 Kg/hectare): 2-3

SMILES: CSc1nnc(C2CCCCO2)c(=O)n1N (stereo not shown) [Compound 163, 3-methylthio-4-amino-6-(tetrahydropyran-2'-yl)-1,2,4-triazine-5-one]
- degree of damage, Wheat ([4]; 0.6 Kg/hectare): 3-4
- degree of damage, Wheat ([4]; 1.2 Kg/hectare): 4-5
- degree of damage, Chenopodium ([6]; 0.6 Kg/hectare): 4-5
- degree of damage, Echinochloa ([8]; 2.4 Kg/hectare): 4-5

SMILES: C=CCNc1nnc(C(C)C)c(=O)n1N [Compound 179, 3-(α-allylamino)-4-amino-6-isopropyl-1,2,4-triazine-5-one]
- degree of damage, Chenopodium ([6]; 0.6 Kg/hectare): 4-5
- degree of damage, Stellaria ([9]; 1.2 Kg/hectare): 4-5

SMILES: CSc1nnc(C2CCCCC2)c(=O)n1NC(O)C(Cl)(Cl)Cl (stereo not drawn) [Compound 193, 3-methylthio-4-(β-trichloro-α-hydroxy-ethyl)-amino-6-cyclohexyl-1,2,4-triazine-5-one]
- degree of damage, Oats ([10]; 2.5 kg/hectare): 4-5
- degree of damage, Wheat ([1]; 5 kg/hectare): 4-5
- degree of damage, Chenopodium ([11]; 2.5 kg/hectare): 4-5
- degree of damage, Oats ([12]; 1.2 Kg/hectare): 4-5
- degree of damage, Wheat ([4]; 2.4 Kg/hectare): 4-5

SMILES: CSc1nnc(C(C)C)c(=O)n1N=C(C)C [Compound 194, 3-methylthio-4-(prop-2'-ylidene-amino)-6-isopropyl-1,2,4-triazine-5-one]
- degree of damage, Wheat ([1]; 1.25 kg/hectare): 4-5
- degree of damage, Cotton ([2]; 1.25 kg/hectare): 4-5
- degree of damage, Wheat ([4]; 1.2 Kg/hectare): 4-5
- degree of damage, Wheat ([4]; 2.4 Kg/hectare): 4-5
- degree of damage, Cotton ([7]; 0.6 Kg/hectare): 4-5

SMILES: COc1ccc(C=Nn2c(SC)nnc(C(C)C)c2=O)cc1 [Compound 207, 3-methylthio-4-(4'-methoxy-benzylidene-amino)-6-isopropyl-1,2,4-triazine-5-one]
- degree of damage, Oats ([10]; 5 kg/hectare): 4-5
- degree of damage, Wheat ([1]; 5 kg/hectare): 4-5
- degree of damage, Cotton ([2]; 5 kg/hectare): 4-5
- degree of damage, Oats ([12]; 2.4 Kg/hectare): 4-5
- degree of damage, Wheat ([4]; 1.2 Kg/hectare): 3-4
- degree of damage, Wheat ([4]; 2.4 Kg/hectare): 3-4
- degree of damage, Cotton ([7]; 0.6 Kg/hectare): 4-5

SMILES: CSc1nnc(C(C)C)c(=O)n1N=Cc1cccc([N+](=O)[O-])c1 [Compound 209, 3-methylthio-4-(3'-nitro-benzylidene-amino)-6-isopropyl-1,2,4-triazine-5-one]
- degree of damage, Oats ([10]; 2.5 kg/hectare): 4-5
- degree of damage, Oats ([10]; 5 kg/hectare): 4-5
- degree of damage, Cotton ([2]; 1.25 kg/hectare): 4-5
- degree of damage, Cotton ([2]; 2.5 kg/hectare): 4-5
- degree of damage, Cotton ([2]; 5 kg/hectare): 4-5
- degree of damage, Chenopodium ([11]; 1.25 kg/hectare): 4-5
- degree of damage, Chenopodium ([11]; 2.5 kg/hectare): 4-5
- degree of damage, Oats ([12]; 2.4 Kg/hectare): 4-5

SMILES: CSc1nnc(C(C)C)c(=O)n1N=Cc1ccc(C)cc1 [Compound 213, 3-methylthio-4-(4'-methyl-benzylidene-amino)-6-isopropyl-1,2,4-triazine-5-one]
- degree of damage, Oats ([10]; 1.25 kg/hectare): 4-5
- degree of damage, Oats ([10]; 2.5 kg/hectare): 4-5
- degree of damage, Cotton ([2]; 2.5 kg/hectare): 4-5
- degree of damage, Cotton ([2]; 5 kg/hectare): 4-5
- degree of damage, Echinochloa ([3]; 1.25 kg/hectare): 4-5
- degree of damage, Oats ([12]; 1.2 Kg/hectare): 3-4
- degree of damage, Oats ([12]; 2.4 Kg/hectare): 4-5
- degree of damage, Wheat ([4]; 0.6 Kg/hectare): 2-3
- degree of damage, Wheat ([4]; 1.2 Kg/hectare): 3-4
- degree of damage, Stellaria ([9]; 0.6 Kg/hectare): 4-5
- degree of damage, Echinochloa ([8]; 0.6 Kg/hectare): 4-5

SMILES: CSc1nnc(C(C)C)c(=O)n1N=CC(C)C [Compound 214, 3-methylthio-4-(isobutylidene-amino)-6-isopropyl-1,2,4-triazine-5-one]
- degree of damage, Wheat ([1]; 2.5 kg/hectare): 4-5
- degree of damage, Oats ([12]; 0.6 Kg/hectare): 4-5
- degree of damage, Cotton ([7]; 0.6 Kg/hectare): 4-5
- degree of damage, Cotton ([7]; 1.2 Kg/hectare): 4-5

SMILES: CSc1nnc(C2CCCCC2)c(=O)n1N=Cc1ccccc1 [Compound 225, 3-methylthio-4-(benzylidene-amino)-6-cyclohexyl-1,2,4-triazine-5-one]
- degree of damage, Cotton ([2]; 2.5 kg/hectare): 4-5
- degree of damage, Echinochloa ([3]; 1.25 kg/hectare): 4-5
- degree of damage, Oats ([12]; 2.4 Kg/hectare): 4-5
- degree of damage, Wheat ([4]; 0.6 Kg/hectare): 3-4
- degree of damage, Echinochloa ([8]; 0.6 Kg/hectare): 4-5

SMILES: CSc1nnc(C2CCCCC2)c(=O)n1N=Cc1ccco1 [Compound 226, 3-methylthio-4-(furfur-2'-ylidene-amino)-6-cyclohexyl-1,2,4-triazine-5-one]
- degree of damage, Oats ([10]; 5 kg/hectare): 4-5
- degree of damage, Cotton ([2]; 5 kg/hectare): 3-4
- degree of damage, Echinochloa ([3]; 2.5 kg/hectare): 4-5
- degree of damage, Oats ([12]; 2.4 Kg/hectare): 4-5
- degree of damage, Cotton ([7]; 2.4 Kg/hectare): 4-5

SMILES: CSc1nnc(C2CCCCC2)c(=O)n1N=C1CCCCC1 [Compound 227, 3-methylthio-4-(cyclohexylidene-amino)-6-cyclohexyl-1,2,4-triazine-5-one]
- degree of damage, Wheat ([1]; 2.5 kg/hectare): 4-5
- degree of damage, Wheat ([1]; 5 kg/hectare): 4-5
- degree of damage, Sinapis ([13]; 1.25 kg/hectare): 4-5
- degree of damage, Echinochloa ([3]; 1.25 kg/hectare): 4-5
- degree of damage, Wheat ([4]; 2.4 Kg/hectare): 4-5
- degree of damage, Chenopodium ([6]; 2.4 Kg/hectare): 4-5
- degree of damage, Stellaria ([9]; 2.4 Kg/hectare): 4-5

SMILES: CSc1nnc(C2CCCCC2)c(=O)n1N=CC(C)C [Compound 229, 3-methylthio-4-(isobutylidene-amino)-6-cyclohexyl-1,2,4-triazine-5-one]
- degree of damage, Oats ([10]; 2.5 kg/hectare): 4-5
- degree of damage, Wheat ([1]; 5 kg/hectare): 4-5
- degree of damage, Cotton ([2]; 5 kg/hectare): 4-5
- degree of damage, Echinochloa ([3]; 1.25 kg/hectare): 4-5

SMILES: CNc1nnc(C(C)(C)C)c(=O)n1N=Cc1ccccc1 [Compound 230, 3-methylamino-4-(benzylidene-amino)-6-tert.-butyl-1,2,4-triazine-5-one]
- degree of damage, Oats ([10]; 5 kg/hectare): 4-5
- degree of damage, Wheat ([1]; 5 kg/hectare): 4-5
- degree of damage, Cotton ([2]; 5 kg/hectare): 4-5
- degree of damage, Sinapis ([13]; 2.5 kg/hectare): 4-5
- degree of damage, Chenopodium ([11]; 2.5 kg/hectare): 4-5
- degree of damage, Echinochloa ([3]; 2.5 kg/hectare): 4-5
- degree of damage, Echinochloa ([3]; 5 kg/hectare): 4-5
- degree of damage, Oats ([12]; 2.4 Kg/hectare): 4-5
- degree of damage, Stellaria ([9]; 0.6 Kg/hectare): 4-5
- degree of damage, Echinochloa ([8]; 1.2 Kg/hectare): 4-5
- degree of damage, Echinochloa ([8]; 2.4 Kg/hectare): 4-5

SMILES: CNc1nnc(C(C)(C)C)c(=O)n1N=Cc1ccc(Cl)cc1 [Compound 233, 3-methylamino-4-(4'-chloro-benzylidene-amino)-6-tert.-butyl-1,2,4-triazine-5-one]
- degree of damage, Echinochloa ([3]; 5 kg/hectare): 4-5
- degree of damage, Oats ([12]; 1.2 Kg/hectare): 4-5
- degree of damage, Oats ([12]; 2.4 Kg/hectare): 4-5
- degree of damage, Wheat ([4]; 0.6 Kg/hectare): 4-5
- degree of damage, Wheat ([4]; 1.2 Kg/hectare): 4-5
- degree of damage, Cotton ([7]; 2.4 Kg/hectare): 4-5
